Like-named read-outs stand apart in the source and are kept apart here. No end group written: not given here.
Biological target: T1, GPR103 F25N-termA (Homo sapiens, UniProt Q96P65, F25A)
T1 construct: we used human full-length QRFPR-encoding plasmids; expressed in transfected cells; host or cells: HEK293 cells, pCAGGS vector
T1 sequence (Q96P65 1-431 F25A): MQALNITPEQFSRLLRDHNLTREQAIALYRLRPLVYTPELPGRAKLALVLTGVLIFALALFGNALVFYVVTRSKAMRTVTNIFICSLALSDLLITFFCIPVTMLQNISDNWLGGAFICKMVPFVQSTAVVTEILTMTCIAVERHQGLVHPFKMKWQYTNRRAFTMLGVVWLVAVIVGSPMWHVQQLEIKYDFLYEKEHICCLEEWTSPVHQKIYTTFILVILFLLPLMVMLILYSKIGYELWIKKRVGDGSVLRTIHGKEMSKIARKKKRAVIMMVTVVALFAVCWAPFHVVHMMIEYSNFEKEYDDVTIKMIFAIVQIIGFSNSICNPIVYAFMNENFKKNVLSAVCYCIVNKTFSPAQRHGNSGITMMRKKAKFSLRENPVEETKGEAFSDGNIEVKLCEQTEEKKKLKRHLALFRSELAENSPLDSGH
Assay: TGFα shedding assay; Exp. level >WT (1:1)
Assay type: cell-based

## TSGPLGNLAEELNGYSRKKGGFSFRF-NH2 [QRFP26]
Exp. #1
  Emax: 108.31 % WT
Exp. #2
  Emax: 103.77 % WT
Exp. #3
  Emax: 108.41 % WT
mean, read-out: Emax
  Emax: 107%
N = 3
  EC50: 79.4 nM
N = 3, read-out: Emax
  Emax: 110 ± 1.2%

From PMC11187126, “Structure and dynamics of the pyroglutamylated RF-amide peptide QRFP receptor GPR103” (Nature Communications, 2024)
